Experimental findings from patent EP0533825B1, “ETHER LIPID-NUCLEOSIDE COVALENT CONJUGATES” (WAKE FOREST UNIVERSITY, priority 1990, dated 1991) are described below.

Experiment [1] deals with CEM-SS cells. Briefly: Cell cytotoxicity (Table 1). It counts as cell-based. To be noted: read-out: Inhibitory Concentration50 For: Cell Cyto-toxicity.
Experiment [2] deals with HIV-1. To be noted: persistently infected monocyte/macrophage (U1) cells. The text has this: Anti-HIV1 Activity of Lipid-Nucleoside Conjugates. […] In brief, CEM-SS cell monolayers were infected with HIV-1. […] Plaques were counted at five days after infection. In this assay HIV-1 syncytial plaques are seen as large, multicellular foci (10 to 25 nuclei/syncytium) that appear either brown and granular or clear. Silnce the number of HIV-1 syncytial plaques correlates with reverse transcriptase (RT) and p24 core antigen activity in the HIV-1 infected cell overlay fluids, the syncytial plaque assay can be used to quantify the amount of infectious virus. […] The activity of p24 core antigen induced by HIV-1 infection of CEM-SS cells was measured spectrophotometrically using the commercial Coulter EIA.
(§1) Anti-HIV1 Activity of Lipid-Nucleoside Conjugates in Monocyte/Macrophages. Monocyte/macrophages represent a major reservoir of HIV-1 in the infected human host. […] However, these cells tend to be resistent to dideoxynucleoside prodrugs due to low levels of kinases needed to activate the prodrugs. See C. […]

Experiment [3] concerns CEM-SS cells. Briefly: CEM-SS cell growth, 3H-Tdr pulse labelling to measure DNA synthesis. It counts as cell-based. The settings on record: Homo sapiens, 48 hours at 37°C, then 3H-Tdr pulse for 8 hours. On the procedure:
To determine the IC₅₀ for cell growth, CEM-SS cells in suspension culture (10,000 cells/ml RPMI-1640 growth medium) were incubated with serial dilutions of compound at 37°C for 48 hours and then pulsed labelled with 1 microCi of ³H-Tdr (SA = 20 Ci/mmole) for 8 hours at 37°C to measure DNA synthesis.

For experiment [4], the system named is HIV-1. To be noted: persistently infected monocyte/macrophage (U1) cells.
Text: as §1
The source holds these as a separate data set.

“3'-Azido-3'-deoxythymidine-5'-monophosphate-D,L-3-octadecanamido-2-ethoxypropane [Compound A]”: the IC50 in experiment [1] amounted to 53.8 µM.

For `Cc1cn([C@H]2C[C@H](N=[N+]=[N-])[C@@H](CO)O2)c(=O)[nH]c1=O` [AZT, 3'-azido-3'-deoxythymidine], in experiment [2], the “Percent of Control (RT DPM)” value is listed as 90% of Control and the “Percent of Control (p24 Core Ag)” value was 101% of Control. Besides, the IC50 in experiment [1] (Homo sapiens, CEM-SS) was determined as 5.6 µM. The same compound came in with an IC50 in experiment [3] of 5.1 µM. The “Percent of Control (PFU)” value in experiment [4] is listed as 87% of Control.

For the compound `CCCCCCCCCCCCCCCCCC(=O)NCC(COP(=O)([O-])OC(CC(=O)OC[C@H]1O[C@@H](n2cc(C)c(=O)[nH]c2=O)C[C@@H]1N=[N+]=[N-])C[N+](C)(C)C)OCC` (stereo partly drawn) [BB, 3'-Azido-3-deoxythymidine-5'-butyrate-γ-N,N,N-trimethyl-ammonium-β-(1-phospho-2-ethoxy-3-octadecanamidopropane)], the IC50 in experiment [3] was determined as 13.7 µM.

`CCCCCCCCCCCCCCCCOCC(COP(=O)([O-])OC(CC(=O)OC[C@H]1O[C@@H](n2cc(C)c(=O)[nH]c2=O)C[C@@H]1N=[N+]=[N-])C[N+](C)(C)C)OCC` (stereo partly drawn) [Compound AA, 3'-Azido-3'-deoxythymidine-5'-butyrate-γ-N,N,N-trimethyl-ammonium-β-(1-phospho-2-ethoxy-3-hexadecyloxypropane)] came in with an IC50 in experiment [3] of 13.5 µM.

On to `CCCCCCCCCCCCCCCCOCC(COP(=O)(O)OC[C@H]1O[C@@H](n2cc(C)c(=O)[nH]c2=O)C[C@@H]1N=[N+]=[N-])OCC` (stereo partly drawn) [Compound B, 3'-Azido-3'-deoxythymidine-5'-monophosphate-D,L-3-hexadecyloxy-2-ethoxypropane], for which, in experiment [1] (Homo sapiens, CEM-SS), the IC50 is 35 ± 2.1 µM.

For `CCCCCCCCCCCCCCCCSCC(COP(=O)(O)OC[C@H]1O[C@@H](n2cc(C)c(=O)[nH]c2=O)C[C@@H]1N=[N+]=[N-])OC` (stereo partly drawn) [Compound C, 3'-Azido-3'-deoxythymidine-5'-monophosphate-D,L-3-hexadecylthio-2-methoxypropane], in experiment [1] (Homo sapiens, CEM-SS), the IC50 was found to be 29.2 ± 5.7 µM.

Consider `O=c1[nH]cnc2c1ncn2[C@H]1CC[C@@H](CO)O1` [DDI, dideoxyinosine], for which the IC50 in experiment [1] (Homo sapiens, CEM-SS) was greater than 100 µM.
